Measurements: patent US20250223307A1, “MDM2/MDMX DOUBLE-TARGET INHIBITOR COMPOUND, PRODRUG, PHARMACEUTICAL COMPOSITION, AND PREPARATION METHOD THEREFOR AND USE THEREOF” (GLOBAL HEALTH DRUG DISCOVERY INSTITUTE, priority 2022, published 2025)

Key:
[1] = tested on: Blood cancer cells RS4; 11; test: CellTiter Glo test: growth inhibition of cells; assay type: cell-based; details: Homo sapiens, 11 cells, 72 h, cell viability
Description: Test of Candidate Compounds on Growth Inhibition of Cells Determined by CellTiter Glo
Blood cancer cells RS4; 11 were inoculated into the 96-well cell culture plate through Multidrop 3000 cells per well, with a volume of 100 μL. The final compound concentration ranged from 50 μM to 0.01 μM at 9 concentration gradients and the DMSO final concentration was 0.1%. The cells and compounds were co-incubated in a cell incubator at 37° C. for 72 h, a CellTiter-Glo Luminescent Cell Viability Assay reagent was added 100 μL/well, the cells and compound were uniformly mixed and incubated at room temperature for 10 min, and Envision reading was performed. A sample treated with 50 μM of a positive compound was taken as a positive control and a sample treated with 100 nL of DMSO was taken as a negative control.

MDM2 = MDM2 (Homo sapiens, UniProt Q00987); test: HTRF test: inhibition of MDM2-p53 protein binding
MDMX = biological target: T1, MDMX (Homo sapiens, UniProt O15151); test: HTRF test: inhibition of MDMX-p53 protein binding
T1 sequence (O15151 2-134): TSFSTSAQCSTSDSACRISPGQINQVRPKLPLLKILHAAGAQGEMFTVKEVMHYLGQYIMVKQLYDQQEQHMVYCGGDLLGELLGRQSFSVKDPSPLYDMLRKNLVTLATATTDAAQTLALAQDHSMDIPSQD

MDM2, sequence (Q00987 2-138): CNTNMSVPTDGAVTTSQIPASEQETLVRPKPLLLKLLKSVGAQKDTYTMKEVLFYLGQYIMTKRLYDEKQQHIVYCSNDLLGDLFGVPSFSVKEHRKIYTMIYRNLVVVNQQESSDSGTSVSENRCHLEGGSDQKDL

Structure (SMILES) | IC50 [1] | IC50 (MDM2) | IC50 (MDMX)
O=C1N/C(=C\c2c[nH]c3c(OCF)c(Cl)ccc23)C(=O)N1Cc1ccc(Cl)cc1 [Compound 12, (Z)-5-((6-chloro-7-(fluoromethoxyl)-1H-indol-3-yl)methylene)-3-(4-chlorobenzyl)imidazolidine-2,4-dione] | > 10000 nM | 10 to 100 nM | 10 to 100 nM
O=C1N/C(=C\c2c[nH]c3c(F)c(Cl)ccc23)C(=O)N1C(CO)c1c(F)cc(Cl)cc1F (stereo not drawn) [Compound 103, (Z)-3-(1-(4-chloro-2,6-difluorophenyl)-2-hydroxyethyl)-5-((6-chloro-7-fluoro-1H-indol-3-yl)methylene)imidazolidine-2,4-dione] | 1000 to 10000 nM | < 10 nM | > 100 nM
N#Cc1ccc(C(C(=O)NC(CO)CO)N2C(=O)N/C(=C\c3c[nH]c4cc(Cl)ccc34)C2=O)cc1 (stereo not drawn) [Compound 31, (Z)-2-(4-((6-chloro-1H-indol-3-yl)methylene)-2,5-dioxoimidazolidin-1-yl)-2-(4-cyanophenyl)-N-(1,3-dihydroxypropan-2-yl)acetamide] | 1000 to 10000 nM | 10 to 100 nM | 10 to 100 nM
N#Cc1ccc(C(C=O)N2C(=O)N/C(=C\c3c[nH]c4c(F)c(Cl)ccc34)C2=O)cc1F (stereo not drawn) [Compound 33, (Z)-4-(1-(4-((6-chloro-7-fluoro-1H-indol-3-yl)methylene)-2,5-dioxoimidazolidin-1-yl)-2-oxyethyl)-2-fluorobenzonitrile] | 1000 to 10000 nM | 10 to 100 nM | 10 to 100 nM
Cc1c(Cl)ccc2c(/C=C3\NC(=O)N(Cc4ccc(C#N)c(F)c4)C3=O)c[nH]c12 [Compound 21, (Z)-4-((4-((6-chloro-7-methyl-1H-indol-3-yl)methylene)-2,5-dioxoimidazolidin-1-yl)methyl)-2-fluorobenzonitrile] | ≤ 1000 nM | 10 to 100 nM | < 10 nM
N#Cc1ccc(C(C(=O)NCCO)N2C(=O)N/C(=C\c3c[nH]c4c(F)c(Cl)ccc34)C2=O)cc1 (stereo not drawn) [Compound 58, (Z)-2-(4-((6-chloro-7-fluoro-1H-indol-3-yl)methylene)-2,5-dioxoimidazolidin-1-yl)-2-(4-cyanophenyl)-N-(2-hydroxyethyl)acetamide] | ≤ 1000 nM | < 10 nM | < 10 nM
N#Cc1c(F)cc(CN2C(=O)N/C(=C\c3c[nH]c4c(F)c(Cl)ccc34)C2=O)cc1F [Compound 35] | ≤ 1000 nM | 10 to 100 nM | 10 to 100 nM
N#Cc1ccc([C@H](CO)N2C(=O)N/C(=C\c3c[nH]c4cc(Cl)ccc34)C2=O)cc1 [Compound 49, (R,Z)-4-(1-(4-((6-chloro-1H-indol-3-yl)methylene)-2,5-dioxoimidazolidin-1-yl)-2-hydroxyethyl)benzonitrile] | ≤ 1000 nM | < 10 nM | 10 to 100 nM

Results, then the molecule that gave them:

IC50 [1] | IC50 (MDM2) | IC50 (MDMX) | Structure (SMILES)
≤ 1000 nM | < 10 nM | < 10 nM | O=C(NC(CO)CO)C(c1ccc(Cl)cc1)N1C(=O)N/C(=C\c2c[nH]c3c(F)c(Cl)ccc23)C1=O (stereo not drawn) [Compound 28, (Z)-2-(4-((6-chloro-7-fluoro-1H-indol-3-yl)methylene)-2,5-dioxoimidazolidin-1-yl)-2-(4-chlorophenyl)-N-(1,3-dihydroxypropan-2-yl)acetamide]
≤ 1000 nM | < 10 nM | < 10 nM | N#Cc1ccc(CN2C(=O)N/C(=C\c3c[nH]c4c(F)c(Cl)ccc34)C2=O)cc1F [Compound 14, (Z)-4-((4-((6-chloro-7-fluoro-1H-indol-3-yl)methylene)-2,5-dioxoimidazolidin-1-yl)methyl)-2-fluorobenzonitrile]
≤ 1000 nM | 10 to 100 nM | 10 to 100 nM | O=C1N/C(=C\c2c[nH]c3c(F)c(Cl)ccc23)C(=O)N1C(CO)c1ccc(Cl)cc1 (stereo not drawn) [Compound 69, (Z)-5-((6-chloro-7-fluoro-1H-indol-3-yl)methylene)-3-(1-(4-chlorophenyl)-2-hydroxyethyl)imidazolidine-2,4-dione]
